Assay [1] addresses Complement factor D (Homo sapiens, UniProt P00746). The assay is described as follows: Binding affinity to factor D (unknown origin) assessed as inhibition constant.
Assay [2] concerns the target Prothrombin (Homo sapiens, UniProt P00734). The experiment in a line: Binding affinity to thrombin (unknown origin) assessed as inhibition constant.
Assay [3] deals with T1, Complement C1s subcomponent (Homo sapiens, UniProt P09871).
T1 sequence (P09871 whole entry): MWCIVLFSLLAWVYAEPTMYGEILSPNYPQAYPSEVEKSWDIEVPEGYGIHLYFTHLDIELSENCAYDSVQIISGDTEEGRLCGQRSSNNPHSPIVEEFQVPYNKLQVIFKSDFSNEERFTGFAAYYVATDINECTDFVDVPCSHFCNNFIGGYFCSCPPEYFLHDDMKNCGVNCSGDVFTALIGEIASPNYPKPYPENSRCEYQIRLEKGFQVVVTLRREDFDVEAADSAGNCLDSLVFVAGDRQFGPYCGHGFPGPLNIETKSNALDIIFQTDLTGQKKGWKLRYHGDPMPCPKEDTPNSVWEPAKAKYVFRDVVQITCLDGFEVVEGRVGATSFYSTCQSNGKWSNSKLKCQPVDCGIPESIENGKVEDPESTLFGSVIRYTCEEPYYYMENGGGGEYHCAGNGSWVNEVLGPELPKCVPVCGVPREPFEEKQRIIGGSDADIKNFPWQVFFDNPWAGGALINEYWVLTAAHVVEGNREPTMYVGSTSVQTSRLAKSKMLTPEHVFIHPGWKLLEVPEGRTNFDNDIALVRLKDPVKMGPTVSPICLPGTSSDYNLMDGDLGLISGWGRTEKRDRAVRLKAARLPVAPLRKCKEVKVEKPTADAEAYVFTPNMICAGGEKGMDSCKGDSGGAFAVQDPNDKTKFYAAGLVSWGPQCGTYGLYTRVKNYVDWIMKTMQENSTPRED
The assay is described as follows: Binding affinity to human C1S assessed as inhibition constant.

The target in assay [4] is T2, Complement C1r subcomponent (Homo sapiens, UniProt P00736).
T2 sequence (P00736 whole entry): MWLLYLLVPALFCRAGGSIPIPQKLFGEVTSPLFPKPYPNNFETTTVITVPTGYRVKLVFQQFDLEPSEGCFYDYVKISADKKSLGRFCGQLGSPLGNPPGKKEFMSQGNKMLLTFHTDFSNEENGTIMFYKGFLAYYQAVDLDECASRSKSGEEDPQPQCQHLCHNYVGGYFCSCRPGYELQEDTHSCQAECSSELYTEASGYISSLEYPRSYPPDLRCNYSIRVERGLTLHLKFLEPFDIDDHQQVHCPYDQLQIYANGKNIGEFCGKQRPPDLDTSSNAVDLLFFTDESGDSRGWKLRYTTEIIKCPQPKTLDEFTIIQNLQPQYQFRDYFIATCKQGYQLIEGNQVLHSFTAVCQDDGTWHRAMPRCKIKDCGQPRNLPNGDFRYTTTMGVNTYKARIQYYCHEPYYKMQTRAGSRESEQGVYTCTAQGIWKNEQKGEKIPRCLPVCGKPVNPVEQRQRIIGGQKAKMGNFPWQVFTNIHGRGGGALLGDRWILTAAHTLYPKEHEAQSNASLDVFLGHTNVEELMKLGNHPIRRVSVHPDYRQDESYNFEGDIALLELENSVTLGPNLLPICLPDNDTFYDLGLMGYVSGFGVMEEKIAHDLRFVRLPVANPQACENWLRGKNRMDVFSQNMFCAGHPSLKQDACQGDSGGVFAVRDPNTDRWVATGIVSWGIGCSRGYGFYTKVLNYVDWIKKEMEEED
The assay is described as follows: Binding affinity to C1R (unknown origin) assessed as inhibition constant.

Assay [5] addresses Trypsin (Homo sapiens, UniProt P07477+P07478+P35030). The experiment in a line: Binding affinity to trypsin (unknown origin) assessed as inhibition constant. It is filed as protein assay.
A short description of assay [6]: Inhibition of human recombinant kallikrein using Pro-Phe-Arg-AMC as substrate pretreated with compound followed by substrate addition incubated for 60 mins by multilabel plate reader method.

A value given as a limit tells only on which side of the number the result lay.

As usually defined, the Ki is a measure of affinity in units of concentration, obtained from inhibition or displacement. The IC50 is the midpoint of a concentration-inhibition curve.

Chain of Complement factor D (P00746 whole entry): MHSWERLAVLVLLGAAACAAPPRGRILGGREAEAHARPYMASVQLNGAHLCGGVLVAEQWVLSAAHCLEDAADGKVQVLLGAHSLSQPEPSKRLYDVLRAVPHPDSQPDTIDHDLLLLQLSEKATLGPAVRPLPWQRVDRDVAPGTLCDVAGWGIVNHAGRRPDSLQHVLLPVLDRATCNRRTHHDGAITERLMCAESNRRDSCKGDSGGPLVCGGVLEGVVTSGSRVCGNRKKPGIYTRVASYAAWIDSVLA

On to `CCCc1c(-c2csc(-c3cc(C(=N)N)sc3SC)n2)cnn1-c1ccccn1`, for which the Ki is 3.7 µM in assay [1]; over 50 µM in assay [2]; 70 nM in assay [3]; at least 50 µM in assay [4]; 0.18 µM in assay [5].

`Cc1cc([C@H]2CN(c3cc(F)c4c(N)nncc4c3)CCN2c2cccc(F)c2)no1`: in assay [6], the IC50 is over 30 µM.

The values are drawn from ChEMBL document CHEMBL5380871.
